For assay [1], the target named is T1, human metabotropic glutamate receptor mGluR5 (Homo sapiens, UniProt P41594).
T1 construct: expressed in transfected cells; host or cells: CHO-K1 (h5CHO), IPTG-inducible
In words: Cytosolic calcium studies with stably transfected cells (h5CHO), functional assay of mGluR5 receptors. The assay is classed as cell-based. To be noted: for IC50: Table A2, negative modulation, compounds added 5 minutes before L-quisqualic acid (~80% of the maximal signal), read-out: hIC50; for IC50 / h left shift: h5CHO cells; for h left shift / EC50: Table A1; for h left shift: left shift of agonist EC50, dose response curves in the presence of 10 µM modulator or vehicle; for EC50: positive modulators, h5CHO cells preincubated with modulator, stimulated by an EC20 concentration of L-glutamate, read-out: hEC50. The protocol: Chinese hamster ovary cells (CHO-K1 cells), stably transfected for inducible expression of a human metabotropic glutamate receptor mGluR5 to form a cell line called h5CHO, are seeded into black clear bottom 96 well plates at a density of 35.000 cells per well. The standard growth medium used (Dulbecco's modified Eagle Medium, DMEM plus L-proline) contains the appropriate inducer isopropyl-β-D-thiogalactopyranosid (IPTG) to achieve optimal receptor expression. One day after seeding the growth medium is exchanged for reconstituted Ca-Kit (Molecular Devices, USA) and incubated for one hour. Ca-Kit is reconstituted in an assay buffer containing 20 mM HEPES pH 7.4, glutamic-pyruvate transaminase, pyridoxal phosphate and sodium pyruvate in Hank's balanced salt solution (HBBS). Agonistic compounds to the receptor elicit increases in cytosolic calcium which can be measured as increases in fluorescence signals by use of a fluorescence imaging plate reader (Molecular Devices). To analyze their potency to negatively modulate the Ca-response test compounds, dissolved in a final DMSO concentration of 0.5%, are added on-line 5 minutes before the agonist to the receptor (L-quisqualic acid at a concentration giving ~80% of the maximal signal). EC50 values for positive allosteric modulators were determined by stimulating the cells which have been preincubated the modulators by an EC20 concentration of L-glutamate.
(§1) The fluorescence signal increase after addition of agonist reflects the increase of cytosolic calcium. Inconsistencies in the amount of cells per well are normalised by using the spatial uniformity correction of the FLIPR operating software Screenworks. The mean of replicated temporal data (n=3-5) is calculated and used for graphical representation. For the evaluation of the pharmacology, the calcium changes in response to different concentrations of agonist or antagonist are determined using a maximum minus minimum (MaxMin) calculation.
(§2) All responses (RFU-values) are determined as percentage of control (= maximum response). EC50 and IC50 are calculated according the logistic equation using XLFit (IDBS, UK) or Prism 4.0 (GraphPad Software, USA). The compounds of the present invention have a potency (EC50 or IC50) within a range of about 0.5 nM to about 100 µM. The left shifts for positive or slient allosteric modulators (PAMs or SAMs, respectively) are determined by comparison of EC50 values from agonist dose response curves run in the presence of 10 µM modulator or vehicle (Vanejevs et al., J. Med. Chem., 2008, 51, 634-647).

Another assay concerns the target T2, mGluR5 receptors (Rattus norvegicus, UniProt P31424).
T2 construct: Primary astrocyte cultures are prepared from cortices of newborn rats; endogenous in cells; host or cells: primary cortical astrocytes from Sprague-Dawley rat pups (2-4 d old)
In words: Cytosolic calcium studies with astrocytes (FLIPR), functional assay of mGluR5 receptors. The class given is cell-based. The settings on record: for IC50: Table A2, pre-incubated 10 minutes before L-quisqualate (100 nM), read-out: rIC50; for EC50: Table A1, positive modulators, fixed concentration of quisqualate (normally 10-30 nM), read-out: rEC50; for r left shift: Table A1, left shift of quisqualate EC50 in the presence and absence of 10 µM modulator. The protocol:
Primary astrocyte cultures are prepared from cortices of newborn rats as described by Booher and Sensenbrenner (1972, Neurobiology 2(3):97-105). Briefly, Sprague-Dawley rat pups (2 - 4 d old) are decapitated and neocortices are dissected, disintegrated with a nylon filter (pore size 80 µm) and carefully triturated. The cell suspension is plated on poly-D-lysine pre-coated flasks (Costar, Netherlands) and cultivated in Dulbecco's Modified Eagle's Medium (DMEM, Invitrogen, Germany) supplemented with 10% foetal calf serum (FCS, Sigma, Germany), 4 mM glutamine and 50 µg/ml gentamycin (both Biochrom, Germany) at 37°C in a humidified atmosphere of 5% CO2/ 95% air for 7 days with exchanging the medium at day 2 and 6.
After 7 days in vitro (DIV), cells are shaken overnight at 250 rpm to remove oligodendrocytes and microglia. The next day, astrocytes are rinsed twice with CMF-PBS (calcium- and magnesium-free phosphate buffered saline, Biochrom, Germany), trypsinized and subplated on poly-D-lysine pre-coated 96-well plates (Greiner, Germany) at a density of 40,000 cells/well. 24 h after establishing the secondary culture the astrocytes are rinsed with PBS^++ (phosphate buffered saline, Biochrom, Germany) and fed with astrocyte-defined medium (ADM) consisting of DMEM containing 1x G5-supplement (Invitrogen, Germany), 0.5 µg/ml heparan sulfate, and 1.5 µg/ml fibronectin (both Sigma, Germany) (Miller et al., (1993) Brain Res. 618(1):175-8). 3 days later the medium is exchanged and the cells incubated for another 2-3 days, so that at the time of experiments astrocytes are 14-15 DIV.
The increase of cytosolic calcium after stimulation with the mGluR5 agonist L-quisqualate is measured using a fluorometric imaging plate reader (FLIPR) and the Ca-Kit (both Molecular Devices). Prior to addition of agonist or antagonist the medium is aspirated and cells are loaded for 2 h at RT with 150 µl of loading buffer consisting of Ca-sensitive dye reconstituted in sodium chloride (123 mM), potassium chloride (5.4 mM), magnesium chloride (0.8 mM), calcium chloride (1.8 mM), D-glucose (15 mM), and HEPES (20 mM), pH 7.3. Subsequently, plates are transferred to FLIPR to detect calcium increase with the addition of L-quisqualate (100 nM) measured as relative fluorescence units (RFU). If antagonists are tested, these compounds are pre-incubated for 10 minutes at RT before addition of the respective agonist.
For positive modulators, concentration-response curves for quisqualate are performed in the presence and absence of 10 µM modulator to determine the extent of potentiation / agonist potency increase. Thereafter, concentration-response curves for the positive modulator are performed in the presence of a fixed concentration of quisqualate showing the biggest window for potentiation (normally 10-30 nM).
as §1, §2

T1 sequence (P41594 21-1212): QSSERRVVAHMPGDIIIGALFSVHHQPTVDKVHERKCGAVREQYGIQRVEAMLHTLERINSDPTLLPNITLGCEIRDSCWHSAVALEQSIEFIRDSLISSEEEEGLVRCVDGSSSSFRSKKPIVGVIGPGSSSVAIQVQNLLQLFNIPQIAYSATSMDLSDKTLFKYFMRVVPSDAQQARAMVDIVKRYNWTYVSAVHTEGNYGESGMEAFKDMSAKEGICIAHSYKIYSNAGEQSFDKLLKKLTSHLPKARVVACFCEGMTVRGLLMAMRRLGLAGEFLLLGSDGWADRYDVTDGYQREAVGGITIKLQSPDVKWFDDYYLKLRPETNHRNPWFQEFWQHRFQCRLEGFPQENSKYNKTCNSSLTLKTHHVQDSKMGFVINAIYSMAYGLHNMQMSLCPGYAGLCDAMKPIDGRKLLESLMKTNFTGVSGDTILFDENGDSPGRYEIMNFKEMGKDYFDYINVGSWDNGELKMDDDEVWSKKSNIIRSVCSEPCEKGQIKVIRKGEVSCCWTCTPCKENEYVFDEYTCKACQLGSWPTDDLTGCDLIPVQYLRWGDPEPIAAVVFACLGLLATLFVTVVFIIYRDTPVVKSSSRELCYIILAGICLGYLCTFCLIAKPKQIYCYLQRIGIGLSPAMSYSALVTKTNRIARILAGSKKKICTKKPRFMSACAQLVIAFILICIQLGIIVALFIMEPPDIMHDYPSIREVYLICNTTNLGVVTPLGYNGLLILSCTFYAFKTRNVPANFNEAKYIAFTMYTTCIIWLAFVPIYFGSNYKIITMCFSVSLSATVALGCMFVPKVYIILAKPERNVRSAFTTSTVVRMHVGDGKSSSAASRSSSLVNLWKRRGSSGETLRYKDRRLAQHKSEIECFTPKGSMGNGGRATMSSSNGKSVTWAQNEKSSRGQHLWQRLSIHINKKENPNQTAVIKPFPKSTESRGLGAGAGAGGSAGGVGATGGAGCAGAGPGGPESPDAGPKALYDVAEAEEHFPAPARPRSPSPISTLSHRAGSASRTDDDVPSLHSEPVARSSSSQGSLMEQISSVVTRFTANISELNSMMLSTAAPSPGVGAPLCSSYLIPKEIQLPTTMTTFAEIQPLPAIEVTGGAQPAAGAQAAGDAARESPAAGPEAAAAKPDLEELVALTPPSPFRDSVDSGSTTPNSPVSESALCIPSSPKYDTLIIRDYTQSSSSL
T2 sequence (P31424 21-1203): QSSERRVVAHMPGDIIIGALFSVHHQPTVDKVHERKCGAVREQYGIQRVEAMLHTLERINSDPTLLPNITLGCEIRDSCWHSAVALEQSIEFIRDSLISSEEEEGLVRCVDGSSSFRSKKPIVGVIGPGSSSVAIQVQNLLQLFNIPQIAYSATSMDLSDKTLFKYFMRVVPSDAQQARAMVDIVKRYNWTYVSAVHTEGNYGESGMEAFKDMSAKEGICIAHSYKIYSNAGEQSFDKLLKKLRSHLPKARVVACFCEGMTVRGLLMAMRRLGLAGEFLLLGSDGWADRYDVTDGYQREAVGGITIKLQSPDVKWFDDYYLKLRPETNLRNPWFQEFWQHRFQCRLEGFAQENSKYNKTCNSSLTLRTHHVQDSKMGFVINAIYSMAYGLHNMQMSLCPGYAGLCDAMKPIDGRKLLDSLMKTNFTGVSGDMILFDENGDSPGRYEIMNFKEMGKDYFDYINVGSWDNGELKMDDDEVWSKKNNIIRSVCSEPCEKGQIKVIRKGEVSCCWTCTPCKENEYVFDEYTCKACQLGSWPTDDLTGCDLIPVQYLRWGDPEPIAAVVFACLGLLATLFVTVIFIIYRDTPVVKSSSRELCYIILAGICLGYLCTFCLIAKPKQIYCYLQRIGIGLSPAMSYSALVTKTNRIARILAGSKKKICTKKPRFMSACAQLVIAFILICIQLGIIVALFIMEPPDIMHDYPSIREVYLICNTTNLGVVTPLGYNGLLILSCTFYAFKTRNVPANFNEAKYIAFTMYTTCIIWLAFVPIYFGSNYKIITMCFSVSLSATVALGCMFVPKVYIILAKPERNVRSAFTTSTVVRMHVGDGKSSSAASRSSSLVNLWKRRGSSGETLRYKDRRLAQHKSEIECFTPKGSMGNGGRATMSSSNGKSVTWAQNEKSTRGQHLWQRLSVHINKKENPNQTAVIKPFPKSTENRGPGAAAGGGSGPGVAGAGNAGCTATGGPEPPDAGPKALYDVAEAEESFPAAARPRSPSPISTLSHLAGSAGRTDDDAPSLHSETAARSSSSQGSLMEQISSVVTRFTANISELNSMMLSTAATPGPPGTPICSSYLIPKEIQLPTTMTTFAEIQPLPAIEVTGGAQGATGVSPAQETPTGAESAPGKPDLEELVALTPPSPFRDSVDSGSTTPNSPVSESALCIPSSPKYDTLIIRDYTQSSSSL

Turning to `COC1CC(C)(C)Cc2ncc(C#Cc3cccc(N)n3)cc21` (racemic) [Example 5, (rac)-6-((5-Methoxy-7,7-dimethyl-5,6,7,8-tetrahydroquinolin-3-yl)ethynyl)pyridin-2-amine], the IC50 in assay [1] is 66.7 nM; at mGluR5 receptors it was 45.7 nM.
For the molecule `O=C(Oc1ccccc1)N1CCc2ncc(C#Cc3ccccc3)cc2C1` [Example 43, Phenyl 3-(phenylethynyl)-7,8-dihydro-1,6-naphthyridine-6(5H)-carboxylate], in assay [1], the h left shift was 2.4-fold and the EC50 came out at 381 nM. The EC50 at mGluR5 receptors was determined as 38 nM.
Turning to `COC(=O)N1CC[C@H]2c3ncc(C#Cc4ccccc4)cc3CC[C@H]21` [Example 71, (6aR,9aR)-Methyl 3-(phenylethynyl)-6,6a,9,9a-tetrahydro-5H-pyrrolo[2,3-h]quinoline-7(8H)-carboxylate], in assay [1], the h left shift is 2.2-fold and the EC50 was 241 nM. At mGluR5 receptors, the r left shift was 1.3-fold and the EC50 came to 32.7 nM.
For the molecule `CCN1CCO[C@@H]2c3cc(C#Cc4ccccc4)cnc3CC[C@@H]21` (racemic) [Example 14, (rac)-cis-4-Ethyl-9-(phenylethynyl)-3,4,4a,5,6,10b-hexahydro-2H-[1,4]oxazino[2,3-f]quinoline], in assay [1], the h left shift is given as 2.2-fold and the EC50 worked out at 659 nM. Besides, at mGluR5 receptors, the r left shift is listed as 3.6-fold and the EC50 is 580 nM.
Taken in the same sequence, the figures for `COC(=O)N1CC2Cc3cc(C#Cc4ccccc4)cnc3C2C1` (racemic) [Example 79, (rac)-Methyl 3-(phenylethynyl)-5a,6,8,8a-tetrahydropyrrolo[3',4':4,5]cyclopenta[1,2-b]pyridine-7(5H)-carboxylate] were 2.6-fold, 64.7 nM, 4.1-fold and 167 nM.
As for `CCCN1CCO[C@@H]2c3cc(C#Cc4ccccc4)cnc3CC[C@@H]21` (racemic) [Example 15, (rac)-cis-9-(Phenylethynyl)-4-propyl-3,4,4a,5,6,10b-hexahydro-2H-[1,4]oxazino[2,3-f]quinoline], in assay [1], the h left shift is 3.2-fold and the EC50 is 88.6 nM. Moreover, on mGluR5 receptors, the r left shift is 5.2-fold and the EC50 is 175 nM.
On the same counts, the results for `O=S(=O)(N1CCOCC1)N1CCc2ncc(C#Cc3ccccc3)cc2C1` [Example 55, 4-((3-(Phenylethynyl)-7,8-dihydro-1,6-naphthyridin-6(5H)-yl)sulfonyl)morpholine] are 2.7-fold, 440 nM, 3.8-fold and 325 nM.
`O=S(=O)(N1CCCC1)N1CCc2ncc(C#Cc3ccccc3)cc2C1` [Example 53, 3-(Phenylethynyl)-6-(pyrrolidin-1-ylsulfonyl)-5,6,7,8-tetrahydro-1,6-naphthyridine]: the h left shift in assay [1] was 1.6-fold. Besides, on mGluR5 receptors, the r left shift is reported as 2.8-fold and the EC50 was determined as 152 nM.
With `COC(=O)N1CC2CCc3ncc(C#Cc4cccc(F)c4)cc3C2C1` (stereo not drawn) [Example 31, Methyl 8-((3-fluorophenyl)ethynyl)-3,3a,4,5-tetrahydro-1H-pyrrolo[3,4-f]quinoline-2(9bH)-carboxylate], in assay [1], the h left shift is 2.6-fold and the EC50 was 333 nM. Also, at mGluR5 receptors, the r left shift is 1.5-fold and the EC50 worked out at 261 nM.
On to `COC(=O)N1CCO[C@@H]2c3cc(C#Cc4ccccc4)cnc3CC[C@@H]21` (racemic) [Example 26, (rac)-cis-Methyl 9-(phenylethynyl)-4a,5,6,10b-tetrahydro-2H-[1,4]oxazino[2,3-f]quinoline-4(3H)-carboxylate], for which, in assay [1], the h left shift is reported as 2.9-fold and the EC50 is 958 nM. On mGluR5 receptors, the r left shift was 4.4-fold and the EC50 was 599 nM.
Taken in the same sequence, the figures for `CCCN1CCO[C@@H]2c3cc(C#Cc4cccc(F)c4)cnc3CC[C@@H]21` (racemic) [Example 19, (rac)-cis-9-((3-Fluorophenyl)ethynyl)-4-propyl-3,4,4a,5,6,10b-hexahydro-2H-[1,4]oxazino[2,3-f]quinoline] were 1.9-fold, 188 nM, 2.6-fold and 323 nM.
As to `COC(=O)N1C2CCC1c1cc(C#Cc3ccccc3)cnc1C2` (racemic) [Example 58, (rac)-Methyl 3-(phenylethynyl)-6,7,8,9-tetrahydro-5H-5,8-epiminocyclohepta[b]pyridine-10-carboxylate], in assay [1], the h left shift is given as 2.3-fold and the EC50 stood at 201 nM. In addition, at mGluR5 receptors, the r left shift is 3.9-fold and the EC50 is 113 nM.
As for `CN(C)C(=O)N1CCc2ncc(C#Cc3cccc(C#N)c3)cc2C1` [Example 46, 3-((3-Cyanophenyl)ethynyl)-N,N-dimethyl-7,8-dihydro-1,6-naphthyridine-6(5H)-carboxamide], the values for the IC50 (in assay [1]; on mGluR5 receptors) were 50.8 nM and 20.8 nM, respectively.
With `COC1CCCc2ncc(C#Cc3ccccc3)cc21` (racemic) [Example 1, (rac)-5-Methoxy-3-(phenylethynyl)-5,6,7,8-tetrahydroquinoline], in assay [1], the h left shift is reported as 2.6-fold and the EC50 amounted to 32.1 nM. For the same molecule, on mGluR5 receptors, the r left shift was 4.9-fold and the EC50 stood at 22.7 nM.
For `O=S(=O)(N1CCCCCC1)N1CCc2ncc(C#Cc3ccccc3)cc2C1` [Example 56, 6-(Azepan-1-ylsulfonyl)-3-(phenylethynyl)-5,6,7,8-tetrahydro-1,6-naphthyridine], in assay [1], the h left shift was 3.0-fold and the EC50 came to 499 nM. Moreover, at mGluR5 receptors, the r left shift was 3.3-fold and the EC50 was 296 nM.

Values taken from patent EP2650284A1, “Heterocyclic derivatives as metabotropic glutamate receptor modulators” (Merz Pharma GmbH & Co. KGaA, priority 2012, dated 2013).
